Measured values reported in patent US8535662B2, “Apyrase therapy for bleeding conditions” (Apt Therapeutics, Inc., priority 2010, dated 2013).
Where “and” joins values, the source holds several entries; their conditions need not be identical. Equal entries are not always repeated. Marks after values point to notes of the source that are not given here.

Experiments:
[1] = tested on: pigs, coronary injury with stenting; assay: Coronary injury and stent in pigs: hematology, blood chemistry, coagulation, bleeding and inflammation markers (Example 6); settings: for ALT / AST / AlkPh / BUN / Creat / Glu / HGB / K / Na / PCV / Platelets / RBC / Tot. Prot / WBC: single animals and mean ± std. dev.
[2] = tested on: dogs, coronary thrombotic occlusion; assay: Canine coronary thrombosis and fibrinolysis model, adjunctive treatment with rtPA (Example 7); type: in vivo, dog; settings: dogs
Description: Thrombotic occlusion was induced by electrical injury to a coronary artery in dogs. […] Buccal mucosa bleeding times, PT, and aPTT were measured as indices of bleeding risk. After 24 hours of reperfusion, infarct size was determined by Evan's blue and triphenyltetrazolium chloride double staining. This protocol is illustrated in FIG. 7.

[3] = tested on: pigs, coronary injury with stenting; assay: Coronary injury (balloon overstretch) and bare metal stent in pigs: platelet accumulation and luminal stenosis (Example 6); type: in vivo, pig
Description: Coronary injury with or without stenting in pigs is regarded as the best preclinical model for simulation of human angioplasty (Touchard, A. G., et al., Thromb. Res. (2007) 120:477-484). One coronary artery was injured by balloon overstretch in each pig and the site of injury including some overlap with the non-injured vessel was covered with a single bare metal stent (BMS).
Accumulation of ^111In-labeled autologous platelets on the stents over the first 24 h was measured in 4/6 pigs in each group. Radiolabeled platelets were injected 15 min before the coronary catheterization and the hearts perfusion-fixed after 24 h to obtain the stented vessel segment for counting radiolabeled platelets.

[4] = tested on: rats, thromboembolic stroke (MCA occlusion); assay: Rat model of thromboembolic stroke (MCA occlusion by preformed clot), apyrase agent plus aspirin (Example 2); type: in vivo; settings: for Neurological deficits, median (interquartile range 25th to 75th), modified Bederson score: n = 10
Description: In this study, four experimental groups were included (n=10):
(1) control, saline injected gastrically;
(2) aspirin, 1.25 mg/kg (equivalent to 100 mg/day dose in human) injected gastrically once a day, starting 3 days prior to middle cerebral artery (MCA) occlusion and also MCA occlusion until the end of each experiment;
(3) apyrase, dose at 0.75 mg/kg injected IV at 2 h after MCA occlusion;
(4) combination group, aspirin and apyrase agent.
In this clinically relevant embolic model, ischemic brain injury was induced by embolizing preformed clots into the middle cerebral artery (MCA). Ten microliters of blood were withdrawn into a catheter and retained for 15 min to allow formation of a clot. Once the clot was formed, the catheter was advanced 17 mm in the ICA until its tip was 1-2 mm away from the origin of the MCA. The preformed clot in the catheter was then injected, and the catheter was removed. […]
Infarct was measured in the brain section stained with 2,3,5-triphenyltetrazolium chloride (TTC) solution. The infarct volume was expressed as a percentage of the total volume from the ipsilateral hemisphere.
Brain swelling (edema) was determined using a formula: edema=(the volume of the right hemisphere—the volume of the left hemisphere)/the volume of the left hemisphere.
Neurological deficits were determined using a modified Bederson's scoring system as following: 0: no observable deficit; 1: forelimb flexion; 2: forelimb flexion plus decreased resistance to lateral push; 3: unidirectional circling; 4: unidirectional circling plus decreased level of consciousness.
Hemorrhagic transformation was quantified by detection of extracellular hemoglobin content in brain homogenates using Drabkin's reagents.

[5] = tested on: ADP-induced platelet aggregation; assay: Ex vivo ADP-induced platelet aggregation in platelet-rich plasma after dosing rabbits; set-up: species or system rabbit; settings: clopidogrel 10 mg/kg oral
From the text: Blood samples taken at various time points were heparinized.
Data are presented as relative light transmission versus time.

[6] = tested on: ADP-induced platelet aggregation; assay: Ex vivo ADP-induced platelet aggregation in platelet-rich plasma in pigs (Example 5); set-up: species or system pig
[7] = tested on: rats, embolic stroke (thrombus injection into internal carotid artery); assay: Embolic stroke model in rats, apyrase agent with or without r-tPA (Example 1); type: in vivo, rat; settings: r-tPA 10 mg/kg alone; brains at 3 days
Description: The following groups were included in this study:
(1) control (saline treated), n=11;
(2) apyrase agent at 0.75 mg/kg, n=4;
(3) apyrase agent at 2.25 mg/kg, n=4;
(4) r-tPA (at 10 mg/kg), n=4;
(5) apyrase agent at 0.75 mg/kg plus r-tPA (10 mg/kg) and
(6) apyrase agent at 2.25 mg/kg plus r-tPA (10 mg/kg) (n=10).
All the treatments were initiated at 2 h following thrombus injection into internal carotid artery. Infarct volume and behavioral deficit were determined at day 3 after the stroke.

[8] = aspirin 5 mg/kg, clopidogrel 4 mg/kg
[9] = by the end of adjunctive therapy

| Molecule | ALT [1] | AST [1] | AlkPh [1] | BUN [1] | Creat [1] | Glu [1] | HGB [1] | K [1] | Na [1] | PCV [1] | Platelets [1] | RBC [1] | Tot. Prot [1] | WBC [1] | other results |
| --- | --- | --- | --- | --- | --- | --- | --- | --- | --- | --- | --- | --- | --- | --- | --- |
| CC(=O)Oc1ccccc1C(=O)O [aspirin] | 48 u/L and 25 u/L and 52 u/L and 50 u/L and 106 u/L | 45 u/L and 24 u/L and 38 u/L and 29 u/L and 211 u/L | 95 u/L and 68 u/L and 132 u/L and 117 u/L and 235 u/L | 12 mg/dL and 10 mg/dL and 4 mg/dL and 7 mg/dL and 11 mg/dL | 1.1 mg/dL (4×) and 0.9 mg/dL | 30 mg/dL and 38 mg/dL and 49 mg/dL and 20 mg/dL and 58 mg/dL | 9.3 g/dL and 8.1 g/dL (3×) and 7.2 g/dL | 3.5 mmol/L and 3.3 mmol/L and 3.6 mmol/L and 3.2 mmol/L and 2.7 mmol/L | 135 mmol/L and 140 mmol/L and 138 mmol/L and 144 mmol/L and 117 mmol/L | 26.8% and 27.7% and 23.9% and 22.8% and 20.7% | 301 thns/uL and 498 thns/uL and 355 thns/uL and 499 thns/uL and 213 thns/uL | 5.19 mil/uL and 4.75 mil/uL and 4.9 mil/uL and 5.07 mil/uL and 4.52 mil/uL | 6 g/dL and 4.5 g/dL and 4 g/dL and 5 g/dL and 4.2 g/dL | 10.3 thns/uL and 16.4 thns/uL and 13.2 thns/uL and 13.9 thns/uL and 13.3 thns/uL | Re-occlusion rate [2, 8]: 100%; Re-occlusion time [2, 8]: 81′; Reperfusion Time ([2]; aspirin 5 mg/kg, clopidogrel 4 mg/kg, after r-tPA): 23′; average luminal stenosis ([3]; 30 days after stenting, six measurements in two pigs): 29.6±6%; accumulation of radiolabeled platelets on stented coronaries ([3]; after 24 h, apyrase […] or clopidogrel 8 mg/kg, each with aspirin 10 mg/kg and heparin): 5.5×10^5 platelets/mm^2; Neurological deficits, median (interquartile range 25th to 75th), modified Bederson score ([4]; 4 h after MCA occlusion): 3; Neurological deficits, median (interquartile range 25th to 75th), modified Bederson score ([4]; 4 h after MCA occlusion, listed as Aspirin (ASA)): 3 (2-4); Neurological deficits, median (interquartile range 25th to 75th), modified Bederson score ([4]; 8 h after MCA occlusion): 2.5 (2-3); infarct volume, percentage of the total volume of the ipsilateral hemisphere (mean±SD) ([4]; 24 h after MCA occlusion, aspirin 1.25 mg/kg gastrically once a day from 3 days prior, apyrase 0.75 mg/kg IV at 2 h): 20.69±2.85%; Neurological deficits, median (interquartile range 25th to 75th), modified Bederson score ([4]; 24 h after MCA occlusion): significantly less severe than the control group; Neurological deficits, median (interquartile range 25th to 75th), modified Bederson score ([4]; 24 h after MCA occlusion, listed as Aspirin (ASA)): 1.5 (1-2)*; extracellular hemoglobin content in brain homogenates (hemorrhagic transformation, Drabkin's reagents) ([4]; 24 h after ischemic injury): 0.93±0.11; brain edema (brain swelling) ([4]; 24 h after ischemic injury, aspirin 1.25 mg/kg, apyrase 0.75 mg/kg IV at 2 h): 6.81±0.56% |
| COC(=O)[C@H](c1ccccc1Cl)N1CCc2sccc2C1 [clopidogrel] | 47 u/L and 65 u/L and 45 u/L (2×) and 43 u/L and 77 u/L | 61 u/L and 63 u/L and 57 u/L and 31 u/L and 44 u/L and 64 u/L | 131 u/L and 111 u/L and 225 u/L and 180 u/L (2×) and 184 u/L | 13 mg/dL and 12 mg/dL and 8 mg/dL and 7 mg/dL and 11 mg/dL and 5 mg/dL | 0.9 mg/dL (4×) and 1 mg/dL (2×) | 20 mg/dL and 33 mg/dL and 69 mg/dL and 40 mg/dL (2×) and 30 mg/dL | 7.6 g/dL and 7.8 g/dL and 6.7 g/dL and 9.2 g/dL and 9 g/dL and 8.5 g/dL | 4.3 mmol/L and 4.2 mmol/L (2×) and 3.5 mmol/L and 4.4 mmol/L (2×) | 131 mmol/L and 132 mmol/L and 119 mmol/L and 140 mmol/L and 134 mmol/L and 138 mmol/L | 21.4% and 22.9% and 20.8% and 28% and 25% and 25.8% | 248 thns/uL and 347 thns/uL and 345 thns/uL and 294 thns/uL and 298 thns/uL and 225 thns/uL | 4.3 mil/uL and 4.7 mil/uL (2×) and 4.6 mil/uL and 5.8 mil/uL and 5.5 mil/uL | 4.8 g/dL and 5.2 g/dL and 4.2 g/dL and 4.5 g/dL and 4.7 g/dL and 4.6 g/dL | 10.8 thns/uL and 16.1 thns/uL and 11.3 thns/uL and 16.9 thns/uL (2×) and 12 thns/uL | blood loss from a standardized incision of the abdominal wall ([1]; 2 and 24 h, blood collected over 5 min): trend for an increase in blood loss by 24 h; template bleeding times relative to apyrase agent or control pigs ([1]; 2 and 24 h, scalpel cut at the edge of the ear): ~3 fold; PT compared to baseline ([1]; 3, 8 and 24 h after gavage): increased significantly compared to baseline; aPTT ([1]; during the time of heparinization): the increase was significant only in clopidogrel-treated pigs; template bleeding time ([1]; summary of findings): markedly increased; buccal mucosa bleeding time [2]: significantly prolonged; PT [2, 9]: increased; aPTT [2, 9]: increased; time after treatment at which significant effect on platelet aggregation was observed [5]: 5 h; platelet aggregation by 24 h ([6]; 24 h after dosing): persistent inhibition of aggregation; time after dosing at which significant inhibition of ADP-induced platelet aggregation began ([6]; clopidogrel 8 mg/kg gavage plus aspirin and heparin): 5 h |
| heparin | – | – | – | – | – | – | – | – | – | – | – | – | – | – | Activated Clotting Time relative to baseline ([1]; after heparin 150 U/kg): > 9 fold; Activated Clotting Time (ACT) ([1]; after heparin 150 U/kg (baseline 119±15 sec, n=17)): 1114 ± 286 s |
| r-tPA: recombinant tissue plasminogen activator | – | – | – | – | – | – | – | – | – | – | – | – | – | – | Hemorrhage #/total animals [7]: 5 out of 11 and 5/11 |
